The record followed here is PMC4026528 (PLoS ONE, 2014).

As a reminder, the pIC50 is the negative decadic logarithm of the IC50, by convention in mol/L.

In assay [1] the test system is HT-1080 (fibrosarcoma) cells. In words: Soft agar assay (anchorage-independent growth), HT-1080. In kind it is cell-based, human. The method, then: (§1) Soft agar assay and analysis was carried out as previously described. For scratch assay, confluent monolayer of U2OS and HT-1080 cells were subjected to scratch using a sterile pipette tip. Wounded monolayers were washed to remove debris and incubated with SEN461 at different concentrations for 20 hours. After the incubation period, images were taken under an Axiovert 200M (Zeiss) microscope equipped with a CCD camera, and the gap width was measured using MetaMorph 6.3 software (Universal Imaging Corp.) to calculate the area covered by cells (pixels unit). The tube formation assay was performed using growth factor-reduced Matrigel from BD (BD Biosciences; San Jose, CA, USA). Matrigel was thawed overnight at 4°C and was diluted (1∶1) with phenol red-free DMEM without serum. 100 µl of the diluted matrigel was used to coat the wells of a 96 well plate and was allowed to polymerize for 2 hours at 37°C. After equilibrating the gel with the complete growth medium, 15×10^3 cells were seeded in each well and incubated for 20 hours. The tube formation was monitored under a phase contrast microscope (Axiovert 200, Zeiss) and imaged using MetaMorph system (Universal Imaging Corp).

Another assay deals with 143B osteosarcoma cells. In words: Soft agar assay (anchorage-independent growth), 143B. The assay is classed as cell-based, human. Particulars: lack of sensitivity up to highest concentration. How it is done: as §1
The test system of assay [2] is Axin1/P-β-catenin co-localization in U2OS cells. Put plainly: Axin1-GFP / P-β-catenin co-localization (confocal) in U2OS. The assay is classed as cell-based, human. Particulars: Wnt3a-CM, 10 µmol/L overnight.
Assay [3] relates to Axin1, TNKS1/2, c-Myc protein in U2OS cells. How it is done: Total, nuclear and cytosolic cells lysates were prepared as described previously. Commercial antibodies used in this study include anti-Axin1, anti-β-catenin, anti-P-β−catenin Ser33/Ser37/Thr41 and anti-HA from Cell Signaling Technologies, anti-p21 (Santa Cruz), anti-tankyrases (Abcam), anti-Tubulin and anti-c-Myc from Calbiochem, anti-GAPDH and anti-β-actin (Sigma). For co-localization experiments, U2OS cells were plated directly on coverslips coated with Fibronectin (Invitrogen). After transfections and incubation treatment of 24 h, cells were washed once with 1X PBS and then fixed with 4% paraformaldehyde for 15 min. After three washes in PBS, cells were permeabilized with 0.1% Triton X-100 for 10 min and washed three times with TBS (Bio-Rad). […] After 24 h, cells were washed three times with TBS and incubated for 1 h with the following secondary antibody Alexa Fluor 546-conjugated goat anti-rabbit IgG (Invitrogen, 1∶1000). Finally, coverslips were mounted onto glass slides using Prolong Gold Antifade reagent with DAPI (Invitrogen). Cells were examined under laser confocal fluorescence microscope with plan-apochromate 40x and 63x/1.4 oil-immersion objective (LSM 510 Meta, Axiovert 200, Zeiss). Co-localization experiments were performed in triplicate, and data/images presented are the average of at least 10 random fields for each independent experiment.

The subject of assay [4] is Myc transcriptional activation in HT-1080 cells. In words: Nucleolin promoter (pNucL14) luciferase reporter, HT-1080. The assay is classed as cell-based, human. Particulars: HT-1080, pNucL14 ± FLAG-c-Myc. An excerpt:
(§2) The generation of TCF-Luciferase and TA-Renilla reporter plasmids as well as IC50 determination and calculation was reported previously. Human AXIN1 and WNT3A cDNAs were purchased from Origene as “transfection ready” plasmids. Dominant negative TCF4 cDNA was purchased from Upstate. Luciferase reporter of the nucleolin promoter (pNucL14) and FLAG-c-Myc expressing vector were from B. Amati. Luciferase reporter of the Hes5 promoter and Notch1-IC expressing vector were from I. Screpanti. Lentiviral vectors for inducible dominant negative TCF4 (rLV-EF1-tTS, rLV-EF1-rtTA and rLV-TRE-CMV-HA-TCF4DN) were purchased from Vectalys.
(§3) Transfections were carried out using Lipofectamine 2000 (Invitrogen) according to the manufacturer’s instructions. Lentiviral expression of TCF-Luc, TA-Renilla, and the inducible dominant negative TCF4, were carried out following Vectalys instructions. For reporter assays, luciferase activities were performed as described previously.
For orientation: A reporter such as luciferase makes a cellular process visible.

Assay [5] relates to Notch signaling in HEK293 cells. In words: Hes5 promoter luciferase reporter with Notch1-IC, HEK293. The assay is classed as cell-based. Particulars: HEK293, Notch1-IC stimulation, data not shown.
Description: as §2, §3

A further assay deals with HT-1080 xenograft tumor. In words: HT-1080 xenograft tumor growth. In kind it is in vivo, female Crl:CD-1 nude mice. Particulars: 30 mg/kg twice a day PO, seven days. The method, then:
Female athymic nude mice (6 weeks old, Crl:CD-1 nude mice) were obtained from Charles River Italia (Calco, Italy). HT-1080 cells (6×10^∧6 cells) were resuspended in 200 µl of PBS 1X and injected subcutaneously in the right flank of the mice. Body weight and tumor measurements (using a digital caliper) were performed twice a week. Randomization was performed on day 12 after cell injection by comparing tumor mass and treatments started on day 13 when tumors reached a median size of 246 mm^3 (range = 230–268 mm^3). SEN461 was formulated in 0.5% w/v Methocel in MilliQ water and administered PO by oral gavage twice a day at 30 mg/kg for seven consecutive days in a total of 15 animals (n = 5 for each time point). Control animals (n = 5) were administered with the vehicle for the same time period. On treatment day 19, the mice were euthanized under inhalant anesthesia with isoflurane and tumor and blood samples were collected at three different time points (1–4–8 h, n = 5 animals for each time point) after last treatment and subjected to gene expression analysis and compound quantification. All mice were maintained in a conventional-specific-pathogen-free facility according to the NIH guidelines using an approved Animal Care and Use Committee protocol. […]

Assay [6] deals with Wnt transcriptional activity in DLD1 colorectal cancer cells. In words: TCF-Luciferase/TA-Renilla Wnt reporter assay in DLD1. In kind it is cell-based. Particulars: DLD1, transiently transfected.
Description: as §2, §3

pIC50: −log10 of the molar value.

As for `COCC(=O)N1CCN(C(=O)C2CCC(Cn3c(=O)c4cc(OC)ccc4n(C)c3=O)CC2)CC1` (stereo not shown) [SEN461], the pIC50 in assay [1] was 6.11; with 143B osteosarcoma cells it was less than 4.52. The “phosphorylated β-catenin associated with Axin1 (co-localization)” value in assay [2] was “increase in the amount of phosphorylated β-catenin associated with Axin1”. For the same compound, the “tankyrases (TNKS1 and TNKS2) protein level” value in assay [3] (only at the highest concentration) is on record as “very slight stabilization”. Also, the c-Myc protein level entry in assay [3] (overnight) was “No effect”. Further, the Axin1 protein level entry in assay [3] (overnight, cytoplasmic lysates) is “concentration-dependent stabilization”. Besides, the “Myc mediated activation / basal activity of nucleolin reporter” value in assay [4] is given as “did not affect”. In addition, the “Notch signaling (Hes5 promoter luciferase)” value in assay [5] is “did not detect any transcriptional effects”. Further, in the assay on HT-1080 xenograft tumor, the “antitumor activity (tumor growth)” value is on record as “tumor stasis effect”. For the same compound, the “Wnt transcriptional activity (TCF-Luciferase/TA-Renilla)” value in assay [6] is reported as “Concentration dependent inhibition of Wnt transcriptional activity”.
